Laboratory results as given in PMC5341070, “Small molecule inhibitors block Gas6-inducible TAM activation and tumorigenicity” (Scientific Reports, 2017).
Where two headings read alike, the source gives them in different places.

Legend:
Assay in all cases: biochemical
Set-up in all cases: KINOMEscan (DiscoverX) competition binding screen of 97 human kinases, percent of control at 10 uM
BMPR2 = BMPR2 (Homo sapiens, UniProt Q13873)
Method: (§1) The KINOMEscan profiling of the inhibitors were performed as per directions by the manufacturer (DiscoverX) against a panel of human protein kinases.

RAF1 = RAF1 (Homo sapiens, UniProt P04049)
Method: as §1

ADCK3 = biological target: T1, ADCK3 (Homo sapiens, UniProt Q8NI60)
T1 construct: gene COQ8A
Method: as §1

CSNK1D = CSNK1D (Homo sapiens, UniProt P48730)
Method: as §1

PIM1 = PIM1 (Homo sapiens, UniProt P11309)
Method: as §1

[1] = biological target: T2, ABL1(E255K)-phosphorylated (Homo sapiens, UniProt P00519, E255K)
T2 construct: phosphorylated
Method: as §1

PLK1 = PLK1 (Homo sapiens, UniProt P53350)
Method: as §1

CSNK1G2 = CSNK1G2 (Homo sapiens, UniProt P78368)
Method: as §1

EGFR(L858R) = EGFR(L858R) (Homo sapiens, UniProt P00533, L858R)
Method: as §1

MAP3K4 = MAP3K4 (Homo sapiens, UniProt Q9Y6R4)
Method: as §1

TGFBR1 = TGFBR1 (Homo sapiens, UniProt P36897)
Method: as §1

DYRK1B = DYRK1B (Homo sapiens, UniProt Q9Y463); details: binding competition, % of control
Method: as §1

LKB1 = biological target: T3, LKB1 (Homo sapiens, UniProt Q15831)
T3 construct: gene STK11
Method: as §1

SRPK3 = SRPK3 (Homo sapiens, UniProt Q9UPE1)
Method: as §1

ZAP70 = ZAP70 (Homo sapiens, UniProt P43403)
Method: as §1

CDK3 = CDK3 (Homo sapiens, UniProt Q00526)
Method: as §1

[2] = biological target: T4, ABL1(T315I)-phosphorylated (Homo sapiens, UniProt P00519, T315I)
T4 construct: phosphorylated
Method: as §1

PAK2 = PAK2 (Homo sapiens, UniProt Q13177)
Method: as §1

ULK2 = ULK2 (Homo sapiens, UniProt Q8IYT8)
Method: as §1

TRKA = biological target: T5, TRKA (Homo sapiens, UniProt P04629)
T5 construct: gene NTRK1
Method: as §1

CDK7 = CDK7 (Homo sapiens, UniProt P50613)
Method: as §1

PIM2 = PIM2 (Homo sapiens, UniProt Q9P1W9)
Method: as §1

JNK1 = biological target: T6, JNK1 (Homo sapiens, UniProt P45983)
T6 construct: gene MAPK8
Method: as §1

[3] = binding competition, % of control, read-out: RU-301 %Ctrl @ 10000nM
[4] = read-out: R428 %Ctrl @ 10000nM, binding competition

CSNK1D, sequence (P48730 whole entry): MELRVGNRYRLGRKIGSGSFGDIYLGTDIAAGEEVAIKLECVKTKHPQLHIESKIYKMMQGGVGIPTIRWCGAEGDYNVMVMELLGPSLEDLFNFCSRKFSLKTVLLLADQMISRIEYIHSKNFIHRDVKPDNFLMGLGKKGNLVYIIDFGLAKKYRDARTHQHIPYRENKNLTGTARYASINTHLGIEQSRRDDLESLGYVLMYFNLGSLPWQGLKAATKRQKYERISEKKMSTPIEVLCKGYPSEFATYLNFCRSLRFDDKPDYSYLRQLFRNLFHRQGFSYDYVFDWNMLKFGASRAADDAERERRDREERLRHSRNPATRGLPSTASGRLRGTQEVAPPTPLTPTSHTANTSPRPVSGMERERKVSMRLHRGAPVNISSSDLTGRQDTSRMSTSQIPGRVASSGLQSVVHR
RAF1, sequence (P04049 whole entry): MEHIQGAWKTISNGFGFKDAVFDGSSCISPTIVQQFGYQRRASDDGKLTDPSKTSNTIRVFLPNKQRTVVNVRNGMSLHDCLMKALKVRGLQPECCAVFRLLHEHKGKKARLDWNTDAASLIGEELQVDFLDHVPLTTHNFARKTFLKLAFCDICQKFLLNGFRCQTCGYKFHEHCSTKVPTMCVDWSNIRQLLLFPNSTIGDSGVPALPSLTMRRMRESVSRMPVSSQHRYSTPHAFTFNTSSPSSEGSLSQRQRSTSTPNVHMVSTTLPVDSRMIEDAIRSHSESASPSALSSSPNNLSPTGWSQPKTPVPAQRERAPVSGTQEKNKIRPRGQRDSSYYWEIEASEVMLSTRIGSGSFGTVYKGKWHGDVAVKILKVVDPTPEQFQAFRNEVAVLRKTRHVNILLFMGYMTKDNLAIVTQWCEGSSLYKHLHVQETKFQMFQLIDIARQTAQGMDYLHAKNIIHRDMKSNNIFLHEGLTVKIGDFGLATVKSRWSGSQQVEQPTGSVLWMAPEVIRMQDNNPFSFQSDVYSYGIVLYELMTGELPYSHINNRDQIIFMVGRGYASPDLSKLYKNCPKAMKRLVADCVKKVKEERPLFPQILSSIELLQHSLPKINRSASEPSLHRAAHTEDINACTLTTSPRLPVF
ZAP70, sequence (P43403 whole entry): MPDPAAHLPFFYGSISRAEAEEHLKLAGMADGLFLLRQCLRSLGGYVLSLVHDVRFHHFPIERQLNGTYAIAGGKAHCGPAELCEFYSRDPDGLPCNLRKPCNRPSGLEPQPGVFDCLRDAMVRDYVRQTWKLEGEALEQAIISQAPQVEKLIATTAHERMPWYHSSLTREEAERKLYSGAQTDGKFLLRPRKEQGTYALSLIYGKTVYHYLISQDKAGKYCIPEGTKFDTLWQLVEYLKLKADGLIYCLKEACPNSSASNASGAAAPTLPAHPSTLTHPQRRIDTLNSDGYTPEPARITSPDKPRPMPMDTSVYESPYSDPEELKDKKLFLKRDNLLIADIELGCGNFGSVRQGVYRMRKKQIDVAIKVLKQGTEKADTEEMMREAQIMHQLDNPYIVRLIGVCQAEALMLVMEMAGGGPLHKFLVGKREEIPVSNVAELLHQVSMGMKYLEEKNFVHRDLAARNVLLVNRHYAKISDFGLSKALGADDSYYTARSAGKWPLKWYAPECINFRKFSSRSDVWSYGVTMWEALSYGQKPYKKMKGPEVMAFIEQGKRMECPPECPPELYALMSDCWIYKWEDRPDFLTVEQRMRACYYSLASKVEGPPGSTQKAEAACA
CDK3, sequence (Q00526 whole entry): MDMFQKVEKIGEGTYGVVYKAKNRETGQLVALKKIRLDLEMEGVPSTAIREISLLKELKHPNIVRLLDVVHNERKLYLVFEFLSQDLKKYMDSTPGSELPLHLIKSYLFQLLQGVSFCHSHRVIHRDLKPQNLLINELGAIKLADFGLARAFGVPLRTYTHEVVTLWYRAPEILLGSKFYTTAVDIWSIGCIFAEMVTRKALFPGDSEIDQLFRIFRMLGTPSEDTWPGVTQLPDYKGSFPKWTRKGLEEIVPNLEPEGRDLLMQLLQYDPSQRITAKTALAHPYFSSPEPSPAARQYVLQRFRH
PIM2, sequence (Q9P1W9 whole entry): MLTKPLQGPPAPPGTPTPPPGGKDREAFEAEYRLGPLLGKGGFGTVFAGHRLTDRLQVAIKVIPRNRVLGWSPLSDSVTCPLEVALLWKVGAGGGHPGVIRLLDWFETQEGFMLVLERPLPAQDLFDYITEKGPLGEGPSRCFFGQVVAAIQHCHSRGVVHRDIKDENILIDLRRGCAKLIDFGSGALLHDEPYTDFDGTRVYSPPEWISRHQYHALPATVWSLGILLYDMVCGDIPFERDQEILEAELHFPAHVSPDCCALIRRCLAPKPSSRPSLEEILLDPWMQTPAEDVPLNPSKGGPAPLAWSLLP
DYRK1B, sequence (Q9Y463 whole entry): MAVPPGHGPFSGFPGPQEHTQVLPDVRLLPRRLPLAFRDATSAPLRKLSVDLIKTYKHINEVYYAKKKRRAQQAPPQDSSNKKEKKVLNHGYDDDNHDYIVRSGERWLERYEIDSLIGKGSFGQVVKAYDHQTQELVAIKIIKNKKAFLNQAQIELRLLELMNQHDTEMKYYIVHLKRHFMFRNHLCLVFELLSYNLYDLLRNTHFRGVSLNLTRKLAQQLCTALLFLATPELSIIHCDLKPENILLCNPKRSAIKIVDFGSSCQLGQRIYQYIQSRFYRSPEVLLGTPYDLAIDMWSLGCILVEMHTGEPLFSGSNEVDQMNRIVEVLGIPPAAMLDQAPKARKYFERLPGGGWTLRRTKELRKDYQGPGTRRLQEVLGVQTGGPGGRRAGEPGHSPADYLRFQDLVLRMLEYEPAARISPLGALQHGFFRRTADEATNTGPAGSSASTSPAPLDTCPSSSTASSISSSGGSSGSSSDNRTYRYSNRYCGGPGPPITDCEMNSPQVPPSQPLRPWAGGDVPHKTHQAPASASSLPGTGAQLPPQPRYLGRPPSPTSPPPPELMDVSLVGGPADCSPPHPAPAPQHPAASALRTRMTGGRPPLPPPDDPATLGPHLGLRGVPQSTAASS
TGFBR1, sequence (P36897 whole entry): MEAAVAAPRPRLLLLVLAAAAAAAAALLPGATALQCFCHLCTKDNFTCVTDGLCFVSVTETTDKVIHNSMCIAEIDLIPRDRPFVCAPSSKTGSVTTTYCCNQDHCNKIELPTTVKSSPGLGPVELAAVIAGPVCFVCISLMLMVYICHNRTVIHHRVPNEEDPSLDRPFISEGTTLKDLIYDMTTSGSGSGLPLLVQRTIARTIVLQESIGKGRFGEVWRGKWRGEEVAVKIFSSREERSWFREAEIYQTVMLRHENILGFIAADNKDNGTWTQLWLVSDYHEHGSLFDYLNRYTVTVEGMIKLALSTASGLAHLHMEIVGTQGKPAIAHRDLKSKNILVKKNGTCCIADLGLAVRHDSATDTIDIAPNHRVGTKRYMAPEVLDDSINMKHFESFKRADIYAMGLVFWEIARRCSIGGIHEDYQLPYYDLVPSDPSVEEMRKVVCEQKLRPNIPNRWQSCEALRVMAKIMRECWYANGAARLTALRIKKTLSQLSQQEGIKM
EGFR(L858R), sequence (P00533 whole entry L858R): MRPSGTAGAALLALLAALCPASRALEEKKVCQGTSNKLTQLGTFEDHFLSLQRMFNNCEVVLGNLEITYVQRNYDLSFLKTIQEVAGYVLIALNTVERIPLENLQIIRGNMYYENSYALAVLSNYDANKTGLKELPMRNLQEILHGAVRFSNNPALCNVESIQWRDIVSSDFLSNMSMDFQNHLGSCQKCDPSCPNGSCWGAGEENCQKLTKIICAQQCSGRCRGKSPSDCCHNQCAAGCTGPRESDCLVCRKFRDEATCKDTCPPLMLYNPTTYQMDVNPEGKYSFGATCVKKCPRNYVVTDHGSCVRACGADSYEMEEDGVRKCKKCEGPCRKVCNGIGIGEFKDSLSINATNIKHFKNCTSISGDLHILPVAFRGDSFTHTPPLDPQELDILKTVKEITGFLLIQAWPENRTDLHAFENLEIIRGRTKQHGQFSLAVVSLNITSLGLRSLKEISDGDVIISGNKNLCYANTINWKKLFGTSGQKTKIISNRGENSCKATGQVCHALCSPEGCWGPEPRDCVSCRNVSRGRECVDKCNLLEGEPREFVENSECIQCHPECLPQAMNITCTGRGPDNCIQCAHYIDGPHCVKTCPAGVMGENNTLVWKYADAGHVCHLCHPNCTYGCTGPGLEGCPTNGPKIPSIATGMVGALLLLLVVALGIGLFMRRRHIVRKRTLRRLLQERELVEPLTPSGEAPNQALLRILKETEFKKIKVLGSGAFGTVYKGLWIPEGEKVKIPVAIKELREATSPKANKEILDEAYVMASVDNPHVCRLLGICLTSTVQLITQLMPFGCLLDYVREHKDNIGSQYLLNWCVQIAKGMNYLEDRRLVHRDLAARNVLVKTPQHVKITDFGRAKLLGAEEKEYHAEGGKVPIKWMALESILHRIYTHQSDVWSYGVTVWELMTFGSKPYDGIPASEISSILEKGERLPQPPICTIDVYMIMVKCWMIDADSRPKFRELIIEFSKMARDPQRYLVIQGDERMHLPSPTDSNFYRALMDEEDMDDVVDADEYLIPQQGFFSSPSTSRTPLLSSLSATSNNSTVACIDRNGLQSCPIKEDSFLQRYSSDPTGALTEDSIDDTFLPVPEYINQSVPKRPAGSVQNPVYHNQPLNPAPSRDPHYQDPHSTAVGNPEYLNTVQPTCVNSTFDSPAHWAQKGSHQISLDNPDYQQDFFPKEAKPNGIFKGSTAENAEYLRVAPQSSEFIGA
CDK7, sequence (P50613 whole entry): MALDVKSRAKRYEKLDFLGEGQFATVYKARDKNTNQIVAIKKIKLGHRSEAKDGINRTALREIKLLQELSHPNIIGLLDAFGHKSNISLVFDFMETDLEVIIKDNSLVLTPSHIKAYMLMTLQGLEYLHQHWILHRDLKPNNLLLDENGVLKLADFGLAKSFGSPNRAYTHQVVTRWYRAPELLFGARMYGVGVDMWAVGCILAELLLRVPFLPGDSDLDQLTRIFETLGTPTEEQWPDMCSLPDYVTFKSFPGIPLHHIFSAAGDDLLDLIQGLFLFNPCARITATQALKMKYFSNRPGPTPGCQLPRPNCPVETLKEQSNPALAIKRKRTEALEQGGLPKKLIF

With `Cc1cc(CSc2ccccc2C(=O)NCCNc2ccc(C(F)(F)F)cc2[N+](=O)[O-])on1` [RU-301] as the compound, how does the remaining binding at 10 µM (BMPR2; [3]) read?
The remaining binding at 10 µM was 78%.

What about the remaining binding at 10 µM (RAF1; [3]) of the same compound?
Its remaining binding at 10 µM is 84%.

What about the remaining binding at 10 µM (ADCK3; [3]) of the same compound?
The remaining binding at 10 µM was 76%.

And the remaining binding at 10 µM (CSNK1D; [3])?
The remaining binding at 10 µM was 94%.

And the remaining binding at 10 µM (PIM1; [3])?
The remaining binding at 10 µM was 82%.

And the remaining binding at 10 µM [1, 3]?
The remaining binding at 10 µM was 94%.

And the remaining binding at 10 µM (PLK1; [3])?
The remaining binding at 10 µM was 95%.

And the remaining binding at 10 µM (CSNK1G2; [3])?
Its remaining binding at 10 µM is 100%.

What about the remaining binding at 10 µM (EGFR(L858R); [3]) of the same compound?
Its remaining binding at 10 µM is 94%.

What about the remaining binding at 10 µM (MAP3K4; [3]) of the same compound?
Its remaining binding at 10 µM is 100%.

What about the remaining binding at 10 µM (TGFBR1; [3]) of the same compound?
Its remaining binding at 10 µM is 100%.

What about the remaining binding at 10 µM (DYRK1B; read-out: RU-301 %Ctrl @ 10000nM) of the same compound?
Its remaining binding at 10 µM is 100%.

And the remaining binding at 10 µM (LKB1; [3])?
The remaining binding at 10 µM was 77%.

What about the remaining binding at 10 µM (SRPK3; [3]) of the same compound?
The remaining binding at 10 µM was 80%.

What about the remaining binding at 10 µM (ZAP70; [3]) of the same compound?
Its remaining binding at 10 µM is 76%.

And the remaining binding at 10 µM (CDK3; [3])?
The remaining binding at 10 µM was 93%.

What about the remaining binding at 10 µM [2, 3] of the same compound?
The remaining binding at 10 µM was 100%.

And the remaining binding at 10 µM (PAK2; [3])?
Its remaining binding at 10 µM is 96%.

And the remaining binding at 10 µM (ULK2; [3])?
The remaining binding at 10 µM was 97%.

What about the remaining binding at 10 µM (TRKA; [3]) of the same compound?
Its remaining binding at 10 µM is 100%.

And the remaining binding at 10 µM (CDK7; [3])?
Its remaining binding at 10 µM is 85%.

What about the remaining binding at 10 µM (PIM2; [3]) of the same compound?
The remaining binding at 10 µM was 83%.

And the remaining binding at 10 µM (JNK1; [3])?
Its remaining binding at 10 µM is 91%.

Which results are given for `Nc1nc(Nc2ccc3c(c2)CC[C@@H](N2CCCC2)CC3)nn1-c1cc2c(nn1)-c1ccccc1CCC2` [R428]?
percent of control binding at 10 µM (BMPR2; [4]): 23%; percent of control binding at 10 µM (RAF1; [4]): 100%; percent of control binding at 10 µM (ADCK3; [4]): 18%; percent of control binding at 10 µM (CSNK1D; [4]): 98%; percent of control binding at 10 µM (PIM1; [4]): 67%; percent of control binding at 10 µM [1, 4]: 0.25%; percent of control binding at 10 µM (PLK1; [4]): 2.9%; percent of control binding at 10 µM (CSNK1G2; [4]): 4.6%; percent of control binding at 10 µM (EGFR(L858R); [4]): 10%; percent of control binding at 10 µM (MAP3K4; [4]): 0.7%; percent of control binding at 10 µM (TGFBR1; [4]): 75%; remaining binding at 10 µM (DYRK1B; read-out: R428 %Ctrl @ 10000nM): 46%; percent of control binding at 10 µM (LKB1; [4]): 60%; percent of control binding at 10 µM (SRPK3; [4]): 3.8%; percent of control binding at 10 µM (ZAP70; [4]): 33%; percent of control binding at 10 µM (CDK3; [4]): 72%; percent of control binding at 10 µM [2, 4]: 0.9%; percent of control binding at 10 µM (PAK2; [4]): 69%; percent of control binding at 10 µM (ULK2; [4]): 1.6%; percent of control binding at 10 µM (TRKA; [4]): 3.9%; percent of control binding at 10 µM (CDK7; [4]): 23%; percent of control binding at 10 µM (PIM2; [4]): 100%; percent of control binding at 10 µM (JNK1; [4]): 14%
